In PMC7904550, “Application of grouping and read-across for the evaluation of parabens of different chain lengths with a particular focus on endocrine properties” (Archives of Toxicology, 2021):

Legend:
rats [1] = settings: ref EFSA 2004; cited from earlier work
bacteria = settings: OECD 471; ref ECHA dissemination portal; cited from earlier work
rats [2] = settings: read-across from MP; ref ECHA dissemination portal; cited from earlier work
rats [3] = settings: rat, in vivo; cited from earlier work
SD-JCL rats = settings: feeding study, ref Sado 1973, Liebert 1984; cited from earlier work
[4] = Grouping and read-across of NOAEL (ECHA RAAF Scenario 5; analogue approach)
Source text: The strength of evidence for the respective AEs was scored by the assessment options indicated in the RAAF ranging from Score 5 (acceptable with high confidence) to Score 1 (not acceptable) (ECHA [2017b]).

in vivo = settings: for concentration at 1 h / Tmax / AUC(0-t) / Cmax: Wistar, rat, serum; for concentration at 1 h: oral; for Tmax / AUC(0-t) / Cmax: po; for AUC(0-t) / Cmax / AUC0-1 h/AUC0–t / C1h/Cmax / Clast / tlast: parent compound
Protocol: These studies were conducted similarly to OECD TG 417 applying 500 and 1000 mg/kg body weight (bw) test item via oral gavage to 10 males and 10 females per dose group. Focus of the toxicokinetic evaluation was on the measurement of the serum concentrations of the parent compounds and their (common) major metabolite p-hydroxybenzoic acid by […] in order to assess the systemic uptake and elimination of the parent compounds and this major metabolite [see also ECHA ([2017a])]. The limit of quantification was determined as 10 ng/mL for all parabens, and as 130 ng/mL for p-hydroxybenzoic acid. […] On account of these major aims, investigations of the faeces and urine were not included in the toxicokinetics screening studies.

rats [5] = settings: rat, in vivo; cited from earlier work; remark: listed apart in the source
rats [6] = settings: rat, in vivo; cited from earlier work; remark: listed apart in the source
rats [7] = settings: acute oral, rats, OECD 401; ref ECHA dissemination portal; cited from earlier work
[8] = Octanol–water partition coefficient (Log Kow); type: physicochemical; settings: mean; OECD TG 107 and OECD TG 117
Source text: Generally, these parabens have very similar physico-chemical properties.

[9] = read-across by interpolation from methyl paraben and propyl paraben

Structure (SMILES): CCOC(=O)c1ccc(O)cc1 [Ethyl paraben, Ethyl 4-hydroxybenzoate]
- NOAEL (rats [1]): 1000 mg/kg bw/day
- Mutagenicity in bacteria classification (bacteria): Not mutagenic [c] (OECD 471; 2012)
- Genetic toxicity in vivo (rats) classification (rats [2]): Not clastogenic (read-across from MP)
- Skin sensitisation classification (rats [3]): Not sensitising (equiv. OECD 406; 1981)
- NOAEL, 25-week repeated dose toxicity (SD-JCL rats): NOAEL: 1200 (25-week repeated dose toxicity [a]) mg/kg body weight/day
- NOAEL for repeated-dose toxicity and DART ([4]; interpolated from methyl paraben and propyl paraben): 1000 mg/kg bw/day
- NOAEL, EOGRTS: developmental and reproductive toxicity [4, 9]: NOAEL: 1000 (Read-across by interpolation) mg/kg body weight/day
- NOAEL, developmental toxicity (OECD TG 414) [4, 9]: NOAEL: 1000 (Read-across by interpolation) mg/kg body weight/day
- NOAEL, reproductive toxicity (OECD TG 421/422) [4, 9]: NOAEL: 1000 (Read-across by interpolation) mg/kg body weight/day
- concentration at 1 h (in vivo; female, 500 mg/kg): 116 ng/mL
- concentration at 1 h (in vivo; female, 1000 mg/kg): 305 ng/mL
- Tmax (in vivo; female, 500 mg/kg): 4.8 min
- AUC(0-t) (in vivo; female, 500 mg/kg, AUC0-1 h): 1080 ng·h/mL
- AUC(0-t) (in vivo; female, 500 mg/kg, AUC0–t): 1540 ng·h/mL
- Cmax (in vivo; female, 500 mg/kg): 5930 ng/mL
- Tmax (in vivo; female, 1000 mg/kg): 10.2 min
- AUC(0-t) (in vivo; female, 1000 mg/kg, AUC0-1 h): 1660 ng·h/mL
- AUC(0-t) (in vivo; female, 1000 mg/kg, AUC0–t): 3320 ng·h/mL
- Cmax (in vivo; female, 1000 mg/kg): 5150 ng/mL
- Cmax (in vivo; female, 1000 mg/kg, females): 5000 ng/mL
- concentration at 1 h (in vivo; male, 500 mg/kg): 71.6 ng/mL
- concentration at 1 h (in vivo; male, 1000 mg/kg): 96.6 ng/mL
- Tmax (in vivo; male, 500 mg/kg): 4.8 min
- AUC(0-t) (in vivo; male, 500 mg/kg, AUC0-1 h): 320 ng·h/mL
- AUC(0-t) (in vivo; male, 500 mg/kg, AUC0–t): 632 ng·h/mL
- Cmax (in vivo; male, 500 mg/kg): 1540 ng/mL
- Tmax (in vivo; male, 1000 mg/kg): 4.8 min
- AUC(0-t) (in vivo; male, 1000 mg/kg, AUC0-1 h): 490 ng·h/mL
- AUC(0-t) (in vivo; male, 1000 mg/kg, AUC0–t): 789 ng·h/mL
- Cmax (in vivo; male, 1000 mg/kg): 2390 ng/mL
- Cmax (in vivo; male, 1000 mg/kg, males): 2000 ng/mL
- AUC0-1 h/AUC0–t (in vivo; 500 mg/kg, female): 70%
- C1h/Cmax (in vivo; 500 mg/kg, female): 2.0%
- Clast (in vivo; 500 mg/kg, female): 23.9 ng/mL
- tlast (in vivo; 500 mg/kg, female): 8.0 h
- AUC0-1 h/AUC0–t (in vivo; 500 mg/kg, male): 51%
- C1h/Cmax (in vivo; 500 mg/kg, male): 4.7%
- Clast (in vivo; 500 mg/kg, male): 70.6 ng/mL
- tlast (in vivo; 500 mg/kg, male): 8.0 h
- AUC0-1 h/AUC0–t (in vivo; 1000 mg/kg, female): 50%
- C1h/Cmax (in vivo; 1000 mg/kg, female): 5.9%
- Clast (in vivo; 1000 mg/kg, female): 168 ng/mL
- tlast (in vivo; 1000 mg/kg, female): 8.0 h
- AUC0-1 h/AUC0–t (in vivo; 1000 mg/kg, male): 62%
- C1h/Cmax (in vivo; 1000 mg/kg, male): 4.0%
- Clast (in vivo; 1000 mg/kg, male): 33.3 ng/mL
- tlast (in vivo; 1000 mg/kg, male): 8.0 h
- Skin irritation/skin corrosion classification (rats [5]): Not irritating (OECD 404; 1983)
- Eye irritation/eye corrosion classification (rats [6]): Not irritating (OECD 405; 1983)
- LD50 (rats [7]): > 3100 (OECD 401; 1982) mg/kg bw
- Log Kow [8]: 2.3 (mean; OECD TG 107 and OECD TG 117)
